The subject of test [1] is Several of the tested nematode species. Kind of test: Retention assay. Format: in vivo. Conditions: 1 nM, 1 μM and 1 mM tested. The method, then:
(§1) OP50 E. coli was grown on a standard 5 cm agar plate (made with standard Nematode Growth Medium). The bacterial lawn was 16 mm in diameter and was grown overnight at 20° C. before being used in trials. Two 4 mm spots (0.6 μL) were placed on opposite sides of the bacterial lawn (using a transparent template to guide spot placement), and several minutes elapsed for the liquid to settle in before placing nematodes down on the assay. Recording began immediately upon worm placement. 0.6 μL of the control was placed on one side of the lawn, and 0.6 μL of the experimental cue was placed on the other side of the lawn, changing the location of the cue throughout trials between left/right and top/bottom to avoid bias.
(§2) Nematodes were isolated by gender at the L4 stage the day before being used in trials as developed adults. Worms were evenly divided and placed at two points equidistant from the foci of the scoring region. Trials were recorded for 20 minutes, and frames were collected for analysis at 1 frame per second. Results were averaged from at least three different trials. For every nematode species in this study, a different total number of worms (using water in both scoring regions) was tested to determine the minimum number of worms necessary for consistent unbiased results over a 20 minute trial. The total number of worms used in the multiple species assays depended on that species' optimal parameters. 10 worms were used for P. redivivus males and females, 20 worms were used for C. elegans males and O. dolichuridae males, and 14 worms were used for S. glaseri males. The Automated Software was used to compare worm occupancy in each scoring region over time, and the Chemotaxis Index (Bargmann et al., Cell 74:515-27 (1993), which is hereby incorporated by reference in its entirety) was adapted to score preference or avoidance to each ascaroside.
(§3) A video camera attached to the microscope produced a digital video stream, which was then analyzed. The ratio of the time the average worm spent in each region of interest was calculated for every trial. For ease of implementation, all worms in a single experiment were assumed to be roughly the same size. Thus worm pixels were counted instead of whole worms, allowing fractions of a worm in the region of interest to be taken into account. It also eliminated the need for a shape-based worm identification algorithm, and allowed each frame to be analyzed independently. A band-pass filter was applied to each frame to eliminate the effect of uneven lighting and also accentuate the worms against the background. The worm was then identified after thresholding the filtered image. Throughout each experiment, the locations and sizes of the regions of interest were known. Through the filtering described above, it is known which pixels are occupied by worms and which ones are not. Thus, the ratio of worm-pixels to all pixels inside the region of interest can be calculated to produce the worm-occupancy ratio. This calculation was done for every frame, giving a plot output of worm-occupancy ratio vs. time for each region.

Test [2] deals with Steinernema riobrave, S. diaprepesi, S carpocapse. Put plainly: Ascaroside function (Table 12). Format: in vivo, Steinernema spp. The conditions noted are these: listed = has this function. The method, then:
(§4) Various ascarosides and ascaroside blends were administered to various nematodes described below (Table 12). […] A very strong result of affecting nematode behavior is designated in the table as “strong.”

The next test deals with C. elegans. Put plainly: Ascaroside function (Table 12). Format: in vivo, Caenorhabditis elegans. Conditions: listed = has this function. Summed up:
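Read-out: nematode behavioral response to applied ascarosides or ascaroside blends; the top category, "strong," marks a very strong effect on behavior.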

Test [3] deals with Heterorhabditis bacteriophora, H. zealandica, H. floridensis. Kind of test: Ascaroside function (Table 12). Format: in vivo, Heterorhabditis spp. The conditions noted are these: entries without asterisk. The method, then:
(§5) Ascarosides ascr#10, ascr#16, ascr#18, ascr#20, and ascr#22 were detected in certain species of Meloidogyne plant parasitic nematodes (FIG. 83) and identified using high-resolution mass spectrometry (FIGS. 84-88).
as §4

Another test relates to S. feltiae IJs. Kind of test: Dispersal assay. Format: in vivo. The procedure: S. feltiae IJs were washed with MILLI-Q water three times and incubated in 6 cm petri dishes for […] with a small amount (4-5 ml) of MILLI-Q water. Nematodes were placed the following day on a 10.7 g/L agar with 1010 g/cm^2 gel strength (PhytoTechnology Lab. Shawnee Mission, Kans.). Nematode behavior was assayed on multiple plates with internal plate replicates to rule out the possibility that behavior was affected by plate composition. Approximately 300 IJs in 10 μl water were placed on an agar medium and the test compounds or extracts (1-2 μl) were placed into the nematode suspension. Upon absorption (˜15 minutes) of the liquid, the freely moving nematodes were video recorded for 5-10 minutes. Dispersal behavior is temperature and season dependent. During winter, the assay is effective at room temperature (22±1° C.). During summer, the assay requires a temperature controlled environment due to the effects on nematode behavior above 23° C.
Activity-guided fractionation was conducted as reported in Srinivasan et al., Nature 454:1115-18 (2008), which is hereby incorporated by reference in its entirety, with modifications. A total of 33 insect host cadavers (G. mellonella larvae) were placed into 70% EtOH and stored at −20° C. until extraction. […]

Test [4] has as its system Meloidogyne javanica, M. floridensis, M. incognita, M. hapla. Kind of test: Ascaroside function (Table 12). Format: in vivo, Meloidogyne spp. The procedure:
as §5, §4

A further test has as its system Panagrellus redivivus. Put plainly: Ascaroside function (Table 12). Format: in vivo. The conditions noted are these: listed = has this function. The procedure:
as §4

For another test, the system named is S. feltiae. Put plainly: Ascaroside function (Table 12). Format: in vivo, Steinernema feltiae. The conditions noted are these: listed = has this function. The method, then:
as §4

Another test deals with S. glaseri males. Kind of test: Retention assay. Format: in vivo. Conditions: only this concentration. The procedure: as §1, §2, §3
Test [5] has as its system P. redivivus males and females. Put plainly: Retention assay. Format: in vivo. The conditions noted are these: only this concentration. The procedure: as §1, §2, §3
The next test relates to C. elegans males. Put plainly: Retention assay. Format: in vivo. The method, then: as §1, §2, §3
In another test the test system is S. glaseri. Kind of test: Ascaroside function (Table 12). Conditions: listed = has this function. Format: in vivo. The procedure: as §4
Another test deals with males. Put plainly: Bioassay of HPLC-purified peak. Format: in vivo. The conditions noted are these: retention time 9.7 minutes. The method, then:
A Thermo Finnigan LCQ Deca XP Max was used with electrospray ionization in positive ion mode in the 50-1000 AMU range. The Thermo Separation spectra HPLC system consisted of a P4000 quaternary pump, an AS 3000 auto sampler, and a UV 6000 diode array detector. The solvents were water with (a) 0.1% formic acid and (b) 90% acetonitrile-10% water with 10 mM ammonium formate. The column temperature was maintained at 60° C. and a solvent flow of 1.0 ml/min. The reversed phase column (PLRP-S Polymeric reversed phase column, 250×4.6 mmid, Varian Inc.) was eluted with a solvent composition starting with 90:10 (a,b) for 2 minutes, followed by a gradient to 5:95 in 20 minutes and an additional 5 minutes at 5:95. Ultraviolet absorption was monitored at 190 and 400 nm. Solvent flow between the ultraviolet detector and mass spectroscopy electrospray interface split 9:1 with a low-volume micro needle P450 splitter valve (Upchurch Scientific, Oak Harbor, Wash.), making it possible to obtain spectra of eluted compounds and simultaneously collect 90% of the injected material for bioassay. […] This was confirmed to be ascr#1 using NMR analysis.

The mark [6] stands for this setting: entries with asterisk (predicted).

Structures are written as SMILES. Marks after values point to notes of the source that are not given here.

Consider `C[C@H](CCC(=O)O)O[C@@H]1O[C@@H](C)[C@H](O)C[C@H]1O` [ascr#9], for which, in test [1], the “preference for ascaroside-conditioned areas” value (“preference” below) was “preferred areas conditioned”. Besides, the “Dispersal (of dauer larvae, infectious juveniles)” value (in test [2]; in test [3]; in test [4] (entries without asterisk); in the test with S. feltiae) was “ascr#9” each time. In addition, the “Attract Males” value in the test with C. elegans and in the test with Panagrellus redivivus was “ascr#9” in each case. Moreover, the “dispersal activity in combination with fractions B and C” value in the test with S. feltiae IJs (ascr#9 40 pmol/μl, ascr#11 1.3 pmol/μL) is “restored the original dispersal activity”. Further, the “dispersal behavior of S. feltiae IJs” value in the test with S. feltiae IJs (tested alone, physiologically relevant concentration) is reported as “did not have activity by themselves”. Besides, the “Repel Females/Herm.” value in [4] (entries without asterisk) is “ascr#9”.

Take `CC1O[C@@H](O[C@H](C)CCCCCCC(=O)O)C(O)C[C@H]1O` (some centres unmarked) [ascr#10]: the “concentration of conditioned regions preferred” value with S. glaseri males is 1 mM; in [5], 1 mM; with C. elegans males it was 1 µM. Besides, the “preference” value in [1] is reported as “preferred areas conditioned”. In addition, the “Attract Males” value with C. elegans, with S. glaseri and in the test with Panagrellus redivivus was “ascr#10” in each case. Moreover, the “predicted function in Meloidogyne species” value in test [4] (alone, in concert, and/or in concert with ascr#9 or other ascarosides) is “act as dispersants and repellants”. The “Dispersal (of dauer larvae, infectious juveniles)” value in test [4] (setting [6]) was “ascr#10*”. Moreover, the “Repel Females/Herm.” value in [4] (setting [6]) is recorded as “ascr#10*”.

With `C[C@H](CCCCC(=O)O)O[C@@H]1O[C@@H](C)[C@H](O)C[C@H]1O` [ascr#1], the “preference” value in [1] is listed as “preferred areas conditioned”. Besides, in the test with males, the “activity to males in the bioassay” value is “active to males”. Moreover, the results for the “Attract Males” value in the test with C. elegans, in the test on S. glaseri and in the test on Panagrellus redivivus were “ascr#l”, “ascr#1” and “ascr#1”, respectively. In addition, the “Promote Dauer Formation” value with C. elegans is reported as “ascr#1”.

These data come from patent US9487551B2, “Small molecule compounds that control mammal-pathogenic nematodes” (California Institute of Technology, priority 2011, dated 2016).
